{
  "source": "patent US20230248723A1",
  "about": "“PYRROLO[2,3-B]PYRAZINE COMPOUNDS AS CCCDNA INHIBITORS FOR THE TREATMENT OF HEPATITIS B VIRUS (HBV) INFECTION” (Hoffmann-La Roche Inc., priority 2017, published 2023)",
  "key": {"[1]": {"test_system": "HBsAg", "test": "HBsAg, multiplex assay, HBV-infected PHH", "type": "cell-based", "conditions": "Hepatitis B virus", "experimental": "(§1) Fresh primary human hepatocytes (PXB-PHH) harvested from humanized mice (uPA/SCID mice)—herein called PHH—were obtained from PhoenixBio Co., Ltd (Japan). Cells were seeded on a collagen I-coated plate at the following cell density: 35,000 cells/well (384-well), 70,000 cells/well (96-well), or, 400,000 cells/well (24-well) in modified hepatocyte clonal growth medium (dHCGM). dHCGM is a DMEM medium containing 100 U/ml Penicillin, 100 μg/ml Streptomycin, 20 mM Hopes, 44 mM NaHCO3, 15 μg/ml L-proline, 0.25 μg/ml insulin, 50 nM Dexamethazone, 5 ng/ml EGF, 0.1 mM Asc-2P, 2% DMSO and 10% FBS (Ishida et al., 2015). Cells were cultured at 37° C. incubator in a humidified atmosphere with 5% CO2. Culture medium was replaced 24 h post-plating and every 2 days until harvest.\nFollowing 4 day of maturation with 1 μM MB-1, HLC were incubated with HBV (purified from CHB individuals) at multiplicity of infection (MOI) 10-40 without PEG for 24 hr; virus inoculum was removed the following day. […] Compound treatment in HLC and PHH was started at day 3 post infection. Compound (in powder) was dissolved in DMSO; the final concentration of DMSO added to cells is 1%. Fresh compound was replenished every 2 day until cells were harvested at day 10 (PHH), or day 14 (HLC). Compound effect on HBV and cellular toxicity was measured by multiplex assay (HBsAg, HBeAg, albumin), branched DNA (pgRNA), or digital PCR (cccDNA) and depicted as % of inhibition compared to DMSO control. Graphs were prepared using Spotfire software.\nA custom, Luminex-based multiplex assay that simultaneously measured HBeAg, albumin, and HBsAg was developed by Radix BioSolutions (Georgetown, Tex.). This is a sandwich immunoassay; each capture antibody was coupled with xMAP™ Luminex magnetic beads. The dynamic ranges of analyte detection are as follows: HBeAg (1-316 ng/ml), albumin (3.1-10,000 ng/ml), and HBsAg (0.1-100 ng/ml) with coefficient variant (CV) […]. Samples were read on FlexMAP 3D (Luminex) and analyzed by Genedata software."}, "[2]": {"test_system": "cccDNA", "test": "cccDNA assay (digital PCR), HBV-infected PHH", "type": "cell-based", "experimental": "as §1\nFollowing 4 day of maturation with 1 μM MB-1, HLC were incubated with HBV (purified from CHB individuals) at multiplicity of infection (MOI) 10-40 without PEG for 24 hr; virus inoculum was removed the following day. HBV infection in PHH was performed at MOI 40+4% PEG. Compound treatment in HLC and PHH was started at day 3 post infection. Compound (in powder) was dissolved in DMSO; the final concentration of DMSO added to cells is 1%. Fresh compound was replenished every 2 day until cells were harvested at day 10 (PHH), or day 14 (HLC). Compound effect on HBV and cellular toxicity was measured by multiplex assay (HBsAg, HBeAg, albumin), branched DNA (pgRNA), or digital PCR (cccDNA) and depicted as % of inhibition compared to DMSO control. Graphs were prepared using Spotfire software.\nHBV-infected cells (in 384- or 96-well plate) were lysed with Cells-to-CT Lysis Reagents according to manufacturer's instruction (Thermo Scientific). To remove excess of RC-DNA, samples were digested with T5 exonuclease (10 U) (New England Biolabs), at 37° C. for 1 hr; enzyme was inactivated by heating the samples at 80° C. for 15 min. DNA samples (1.2 μl) were added into the digital PCR Master Mix (QuantStudio Digital PCR Kit, Thermo Scientific) containing cccDNA primers 5′-[…] (forward), 5′-[…] (reverse), and […] (probe) (Werle-Lapostolle et al., 2004) in a total volume 5 μl, and loaded into dPCR array using AccuFill System (AB). Each sample was loaded into 4 subarrays/256 through-holes. Digital PCR assay was run on QuantStudio 12K Flex (AB) and data was analyzed by Digital Suite Software (AB)."}},
  "note": "Where two headings read alike, the source gives them in different places.",
  "data": [
    {"molecule": "O=C(NC(CO)CO)c1c[nH]c2ncc(C3CC3)nc12", "note": "[compound 7]", "values": [
      {"measurement": "IC50", "setting": "[1]; 240 h, read-out: HBsAg IC50 (μM) Median, PHH, patient-derived HBV GT A, MOI 40, day 10 pi", "result": 0.33, "unit": "µM"},
      {"measurement": "IC50", "setting": "[1]; 240 h, read-out: HBsAg IC50 (μM) Median, PHH, patient-derived HBV GT B, MOI 40, day 10 pi", "result": 0.34, "unit": "µM"},
      {"measurement": "IC50", "setting": "[1]; 240 h, read-out: HBsAg IC50 (μM) Median, PHH, patient-derived HBV GT C, MOI 40, day 10 pi", "result": 0.3, "unit": "µM"},
      {"measurement": "IC50", "setting": "[1]; 240 h, read-out: HBsAg IC50 (μM) Median, PHH, patient-derived HBV GT D, MOI 40, day 10 pi (Table 5)", "result": 0.3, "unit": "µM"},
      {"measurement": "IC50", "setting": "[1]; read-out: HBsAg IC50 (μM) Median, PHH, HepG2.2.15-derived HBV GT D, MOI 40", "result": 9.98, "unit": "µM"},
      {"measurement": "IC50", "setting": "[1]; read-out: HBsAg IC50 (μM) Median, PHH, HepG2.2.15-derived HBV GT D, MOI 125", "result": 8.98, "unit": "µM"},
      {"measurement": "IC50", "setting": "[1]; read-out: HBsAg IC50 (μM) Median, PHH, patient-derived HBV (GT D)", "result": 0.45, "unit": "µM"},
      {"measurement": "IC50", "setting": "[1]; read-out: HBsAg IC50 (μM) Median, PHH, patient-derived HBV GT D, MOI 40 (Table 6)", "result": 0.44, "unit": "µM"},
      {"measurement": "IC50", "setting": "[1]; read-out: HBsAg IC50 (μM) Median, PHH, patient-derived HBV GT D, MOI 125", "result": 0.8, "unit": "µM"},
      {"measurement": "IC50", "setting": "[1]; read-out: HBsAg IC50s, PHH, patient-derived HBV GT A-D, range stated in text for HBsAg & HBeAg", "result": "0.24 to 0.45", "unit": "µM"},
      {"measurement": "IC50", "setting": "[2]; Hepatitis B virus, 240 h, patient-derived HBV GT A, MOI 40, day 10 pi, read-out: cccDNA IC50 (μM) Median", "result": 7.15, "unit": "µM"},
      {"measurement": "IC50", "setting": "[2]; Hepatitis B virus, 240 h, patient-derived HBV GT B, MOI 40, day 10 pi, read-out: cccDNA IC50 (μM) Median", "result": 6.56, "unit": "µM"},
      {"measurement": "IC50", "setting": "[2]; Hepatitis B virus, 240 h, patient-derived HBV GT C, MOI 40, day 10 pi, read-out: cccDNA IC50 (μM) Median", "result": 6.2, "unit": "µM"},
      {"measurement": "IC50", "setting": "[2]; Hepatitis B virus, 240 h, patient-derived HBV GT D, MOI 40, day 10 pi (Table 5), read-out: cccDNA IC50 (μM) Median", "result": 6.69, "unit": "µM"},
      {"measurement": "IC50", "setting": "[2]; Hepatitis B virus, HepG2.2.15-derived HBV GT D, MOI 40, read-out: cccDNA IC50 (μM) Median", "result": 25, "unit": "µM"},
      {"measurement": "IC50", "setting": "[2]; Hepatitis B virus, HepG2.2.15-derived HBV GT D, MOI 125, read-out: cccDNA IC50 (μM) Median", "result": 25.2, "unit": "µM"},
      {"measurement": "IC50", "setting": "[2]; Hepatitis B virus, patient-derived HBV (GT D), read-out: cccDNA IC50 (μM) Median", "result": "< 10", "unit": "µM"},
      {"measurement": "IC50", "setting": "[2]; Hepatitis B virus, patient-derived HBV GT A-D, read-out: cccDNA IC50s", "result": "6.2 to 7.15", "unit": "µM"},
      {"measurement": "IC50", "setting": "[2]; Hepatitis B virus, patient-derived HBV GT D, MOI 40 (Table 6), read-out: cccDNA IC50 (μM) Median", "result": 6.41, "unit": "µM"},
      {"measurement": "IC50", "setting": "[2]; Hepatitis B virus, patient-derived HBV GT D, MOI 125, read-out: cccDNA IC50 (μM) Median", "result": 6.78, "unit": "µM"},
      {"measurement": "IC50", "setting": "[2]; patient-derived HBV (GT D), read-out: cccDNA IC50 (μM) Median", "result": 6.76, "unit": "µM"}
    ]}
  ]
}
